Experimental data published in patent US20080299140A1, “Immunogenic Composition and Peptide Sequences for Prevention and Treatment of an Hsv Condition” (priority 2002, published 2008).
Positions count from the first letter of the chain named. pIC50: −log10 of the molar value. Where two headings read alike, the source gives them in different places.

Tests used:
[1] = target: T1, DR3=HLA-DR(α1*0101,α1*0301) (Homo sapiens, UniProt P01903+P01911, A100K/A102G/A103R/A169T/F55Y/I96L/K41T/L162R/M171V/P40S/Q125H/Q178H/Q39Y/R42S/S66N/T106N/T262R/W38E/Y61H); assay: HLA-DR specific binding assay, DR3
T1 construct: endogenous in cells; host or cells: STEILIN (EBV homozygous B cell line)

[2] = target: T2, DR4=HLA-DR(α1*0101,α1*0401) (Homo sapiens, UniProt P01903+P01911, A100K/A169T/F76Y/I96L/K127E/L162R/M171V/N62H/P40V/Q125Y/R42H/S133A/S149N/S66Y/V115G/V209L/W38E); assay: biochemical; type: binding
T2 construct: endogenous in cells; host or cells: BOLETH (EBV homozygous B cell line)

[3] = target: T3, DR7=HLA-DR(α1*0101,α1*0701) (Homo sapiens, UniProt P01903+P01911, A100R/A102G/A103Q/D57E/D86V/E43K/F76Y/K127E/L162R/M171V/P40G/Q125H/Q99D/R33Q/R42Y/R54Q/S133A/S66F/T210M/V115G/Y107V/Y59L/Y89S); assay: HLA-DR specific binding assay, DR7
T3 construct: endogenous in cells; host or cells: EBV homozygous human B cell line

[4] = target: T4, DR11=HLA-DR(α1*0101,α1*1101) (Homo sapiens, UniProt P01903+P01911, A100R/A169T/A87E/I96F/K41T/L162R/M171V/P40S/Q125H/Q178H/Q39Y/Q99D/R42S/S66Y/T262R/V115G/W38E); assay: biochemical; type: binding
T4 construct: endogenous in cells; host or cells: SWEIG (EBV homozygous B cell line)

[5] = target: T5, DR13=HLA-DR(α1*0101,α1*1301) (Homo sapiens, UniProt P01903+P01911, A100E/A169T/K41T/L162R/M171V/P40S/Q125H/Q178H/Q39Y/Q99D/R42S/S66N/T262R/W38E/Y61H); assay: HLA-DR specific binding assay, DR13
T5 construct: endogenous in cells; host or cells: 0206AD (EBV homozygous B cell line)

[6] = target: T6, DR15=HLA-DR(α1*0101,α1*1501) (Homo sapiens, UniProt P01903+P01911); assay: HLA-DR specific binding assay, DR15
T6 construct: endogenous in cells; host or cells: EBV homozygous human B cell line

[7] = target: T7, DRB3=HLA-DR(α1*0101,α3*0101) (Homo sapiens, UniProt P01903+P79483); assay: HLA-DR specific binding assay, DRB3 (DR52)
T7 construct: endogenous in cells; host or cells: STEILIN or 0206AD (both typed DRB3*0101)

[8] = target: T8, DRB4=HLA-DR(α1*0101,α4*0101) (Homo sapiens, UniProt P01903+P13762, G164S); assay: HLA-DR specific binding assay, DRB4 (DR53)
T8 construct: endogenous in cells

[9] = target: T9, DRB5=HLA-DR(α1*0101,α5*0101) (Homo sapiens, UniProt P01903+Q30154); assay: biochemical; type: binding
T9 construct: endogenous in cells; host or cells: EBV homozygous human B cell line

[10] = target: T10, DP401=HLA-DP(α1*0101,α1*0401) (Homo sapiens, UniProt P04440+P20036); assay: biochemical; type: binding
T10 sequence (P20036 32-260 limits assumed): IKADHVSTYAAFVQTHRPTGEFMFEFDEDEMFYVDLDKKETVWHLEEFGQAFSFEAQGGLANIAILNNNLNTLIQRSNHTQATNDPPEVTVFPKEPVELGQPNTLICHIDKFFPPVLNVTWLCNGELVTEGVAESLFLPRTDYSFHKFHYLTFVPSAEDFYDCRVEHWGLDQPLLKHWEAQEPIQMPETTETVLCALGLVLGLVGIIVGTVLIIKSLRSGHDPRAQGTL
T10 sequence (P04440 30-258): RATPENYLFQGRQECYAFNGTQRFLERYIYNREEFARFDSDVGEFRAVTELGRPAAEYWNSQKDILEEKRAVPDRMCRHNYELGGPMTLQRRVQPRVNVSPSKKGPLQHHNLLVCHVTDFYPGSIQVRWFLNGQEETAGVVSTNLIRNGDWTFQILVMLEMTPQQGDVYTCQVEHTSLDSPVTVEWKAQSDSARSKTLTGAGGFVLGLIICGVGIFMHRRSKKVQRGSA

[11] = target: T11, DP402 DP (α1*0101, α1*0402) (Homo sapiens, UniProt P04440+P20036, A65V/A84D/A85E/L207M); assay: biochemical; type: binding
T11 sequence (P20036 29-260): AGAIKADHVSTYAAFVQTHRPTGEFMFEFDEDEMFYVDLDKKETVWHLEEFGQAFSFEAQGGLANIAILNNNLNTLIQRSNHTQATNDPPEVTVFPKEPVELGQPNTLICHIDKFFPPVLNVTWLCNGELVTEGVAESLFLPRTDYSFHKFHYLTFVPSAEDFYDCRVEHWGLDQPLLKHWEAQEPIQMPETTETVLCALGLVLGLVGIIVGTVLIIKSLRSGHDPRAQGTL
T11 sequence (P04440 30-258 A65V/A84D/A85E): T10 sequence (P04440 30-258) with A36V, A55D, A56E

[12] = tested on: HLA-DR and HLA-DP molecules; assay: MHC class II binding assays, panel of twelve HLA class II molecules (number of alleles bound); conditions: number of the twelve class II MHC alleles bound; title: Threshold 600 nM/5 alleles
[13] = IC50, DR3, Class II MHC allele DR3
[14] = Class II MHC allele DR4, read-out: IC50, DR4
[15] = Table V, […], read-out: IC50 DR4
[16] = read-out: IC50, DR13, Class II MHC allele DR13
[17] = IC50, DRD3, Class II MHC allele DRD3 (so in the source)
[18] = Table V, […], read-out: IC50 DRB5
[19] = Class II MHC allele DR11, read-out: IC50, DR11
[20] = Table V, […], read-out: IC50 DR11

T9 sequence (Q30154 30-266, other chains not shown): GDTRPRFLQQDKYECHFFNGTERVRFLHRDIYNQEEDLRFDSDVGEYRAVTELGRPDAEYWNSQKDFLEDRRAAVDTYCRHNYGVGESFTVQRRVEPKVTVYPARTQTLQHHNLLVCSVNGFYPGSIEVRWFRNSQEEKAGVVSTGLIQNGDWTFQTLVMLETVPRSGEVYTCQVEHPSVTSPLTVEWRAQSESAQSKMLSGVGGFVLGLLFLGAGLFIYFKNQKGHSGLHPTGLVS
T7 sequence (P79483 30-266, other chains not shown): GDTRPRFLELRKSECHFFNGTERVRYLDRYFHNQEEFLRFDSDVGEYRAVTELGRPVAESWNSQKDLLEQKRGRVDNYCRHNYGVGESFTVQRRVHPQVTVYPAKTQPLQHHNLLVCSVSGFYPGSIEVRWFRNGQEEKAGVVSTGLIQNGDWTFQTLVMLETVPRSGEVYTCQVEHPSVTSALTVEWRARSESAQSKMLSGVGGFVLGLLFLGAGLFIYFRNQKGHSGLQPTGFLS

| SMILES | pIC50 [1, 13] | pIC50 ([1]; IC50 DR3, Table V, […]) | pIC50 [2, 14] | pIC50 [2, 15] | pIC50 [3] | pIC50 ([4]; IC50, DR11) | pIC50 ([4]; IC50 DR11) | pIC50 [5] | pIC50 [5, 16] | pIC50 [6] | pIC50 [7, 17] | pIC50 ([7]; IC50 DRB3, Table V, […]) | pIC50 [8] | pIC50 [9, 18] | pIC50 ([10]; Class II MHC allele DP401) | pIC50 ([10]; Table V, […]) | pIC50 ([11]; Class II MHC allele DP402) | pIC50 ([11]; Table V, […]) | Range [12] | pIC50 [4, 19] | further results |
| --- | --- | --- | --- | --- | --- | --- | --- | --- | --- | --- | --- | --- | --- | --- | --- | --- | --- | --- | --- | --- | --- |
| CC[C@H](C)[C@H](NC(=O)[C@H](CO)NC(=O)[C@@H]1CCCN1C(=O)[C@@H](NC(=O)[C@H](Cc1c[nH]cn1)NC(=O)[C@H](Cc1c[nH]c2ccccc12)NC(=O)[C@H](CC(N)=O)NC(=O)[C@@H]1CCCN1C(=O)[C@@H]1CCCN1C(=O)[C@@H](NC(=O)[C@H](CCC(N)=O)NC(=O)[C@@H]1CCCN1C(=O)[C@H](C)N)[C@@H](C)CC)[C@@H](C)CC)C(=O)N[C@@H](CCC(N)=O)C(=O)N[C@@H](CC(=O)O)C(=O)N[C@@H](C)C(=O)N[C@@H](C)C(=O)N[C@H](C(=O)N1CCC[C@H]1C(=O)N[C@@H](Cc1ccc(O)cc1)C(=O)N[C@@H](Cc1c[nH]cn1)C(=O)N1CCC[C@H]1C(=O)N1CCC[C@H]1C(=O)N[C@@H](C)C(=O)N[C@H](C(=O)N1CCC[C@H]1C(=O)N[C@@H](CC(N)=O)C(=O)N[C@@H](CC(N)=O)C(=O)N[C@@H](CCSC)C(=O)NCC(=O)N[C@@H](CC(C)C)C(=O)O)[C@@H](C)O)[C@@H](C)O [HSV 35] | 4.71 | 4.71 | 6.22 | 6.22 | 5.61 | 4.60 | 4.60 | < 4.00 | < 4.00 | 5.17 | 5.30 | 5.30 | 5.49 | 5.35 | < 4.00 | < 4.00 | < 4.00 | < 4.00 | 1 |  |  |
| CC[C@H](C)[C@H](NC(=O)[C@@H]1CCCN1C(=O)[C@H](CS)NC(=O)[C@H](C)NC(=O)CNC(=O)[C@H](CC(C)C)NC(=O)[C@H](CO)NC(=O)[C@H](CCCCN)NC(=O)[C@@H](N)CC(N)=O)C(=O)N[C@@H](CCCNC(=N)N)C(=O)N[C@H](C(=O)N[C@@H](CCC(N)=O)C(=O)N1CCC[C@H]1C(=O)N[C@@H](CCCNC(=N)N)C(=O)N[C@@H](Cc1c[nH]c2ccccc12)C(=O)N[C@@H](CC(N)=O)C(=O)N[C@@H](Cc1ccc(O)cc1)C(=O)N[C@@H](Cc1ccc(O)cc1)C(=O)N[C@@H](CC(=O)O)C(=O)N[C@@H](CO)C(=O)N[C@@H](Cc1ccccc1)C(=O)N[C@@H](CO)C(=O)N[C@@H](C)C(=O)N[C@H](C(=O)N[C@@H](CO)C(=O)N[C@@H](CCC(=O)O)C(=O)N[C@@H](CC(=O)O)C(=O)N[C@@H](CC(N)=O)C(=O)N[C@@H](CC(C)C)C(=O)NCC(=O)N[C@@H](Cc1ccccc1)C(=O)N[C@@H](CC(C)C)C(=O)O)C(C)C)[C@@H](C)O [HSV 33] | 7.18 | 7.18 | 8.22 | 8.10 | 7.72 |  |  | 6.80 |  | 8.70 | 6.65 | 6.65 | 6.50 | 6.87 | 7.08 | 7.08 | 7.19 | 7.19 | 12 | 6.54 | pIC50 [4, 20]: 6.54 |
| CC[C@H](C)[C@H](NC(=O)[C@H](CCC(N)=O)NC(=O)[C@@H]1CCCN1C(=O)[C@H](C)NC(=O)[C@H](CCC(=O)O)NC(=O)[C@H](CO)NC(=O)[C@@H]1CCCN1C(=O)[C@H](C)NC(=O)[C@H](CC(N)=O)NC(=O)[C@H](CC(C)C)NC(=O)[C@H](CC(C)C)NC(=O)[C@@H](NC(=O)[C@H](CO)NC(=O)[C@H](CCCNC(=N)N)NC(=O)[C@H](CS)NC(=O)[C@H](C)NC(=O)[C@H](CCCNC(=N)N)NC(=O)[C@H](CCC(=O)O)NC(=O)[C@H](CC(C)C)NC(=O)[C@@H](NC(=O)[C@H](C)NC(=O)[C@H](Cc1ccc(O)cc1)NC(=O)[C@H](Cc1ccc(O)cc1)NC(=O)[C@@H](NC(=O)[C@@H](NC(=O)[C@@H](NC(=O)[C@@H]1CCCN1C(=O)[C@H](CC(C)C)NC(=O)[C@H](CO)NC(=O)[C@@H]1CCCN1C(=O)[C@@H]1CCCN1C(=O)[C@@H](N)CCC(N)=O)[C@@H](C)CC)[C@@H](C)O)C(C)C)C(C)C)C(C)C)C(=O)N[C@H](C(=O)N[C@@H](CCCNC(=N)N)C(=O)O)C(C)C [HSV 36] | 5.90 | 5.90 | 7.03 | 7.03 | 6.76 | 6.92 | 6.92 | < 4.00 | < 4.00 | 7.74 | 5.30 | 5.30 |  |  | 6.21 | 6.21 | 7.01 | 7.01 | 9 |  | pIC50 [9]: 7.18 |
| CC[C@H](C)[C@H](NC(=O)[C@H](CO)NC(=O)[C@H](CC(=O)O)NC(=O)[C@@H](NC(=O)[C@@H](NC(=O)[C@@H](NC(=O)CNC(=O)[C@H](CCC(N)=O)NC(=O)[C@H](CCC(N)=O)NC(=O)[C@H](Cc1ccc(O)cc1)NC(=O)[C@H](C)NC(=O)[C@H](CCC(N)=O)NC(=O)[C@@H]1CCCN1C(=O)[C@H](CO)NC(=O)[C@H](CC(C)C)NC(=O)[C@H](CS)NC(=O)[C@H](C)NC(=O)[C@@H](N)CO)C(C)C)[C@@H](C)O)C(C)C)C(=O)NCC(=O)N[C@@H](CCSC)C(=O)N[C@@H](CC(C)C)C(=O)N1CCC[C@H]1C(=O)N[C@@H](CCCNC(=N)N)C(=O)N[C@@H](Cc1ccccc1)C(=O)N[C@H](C(=O)N1CCC[C@H]1C(=O)N[C@@H](CCC(=O)O)C(=O)N[C@@H](CC(N)=O)C(=O)N[C@@H](CCC(N)=O)C(=O)N[C@@H](CCCNC(=N)N)C(=O)N[C@H](C(=O)N[C@H](C(=O)N[C@@H](C)C(=O)N[C@H](C(=O)N[C@@H](Cc1ccc(O)cc1)C(=O)O)C(C)C)C(C)C)[C@@H](C)O)[C@@H](C)CC [HSV 37] | 6.51 | 6.51 |  |  | 6.70 |  |  | 5.69 |  | 7.89 | 7.39 | 7.39 | 5.43 | 7.17 |  |  | 6.78 | 6.78 | 9 | 7.36 | pIC50 ([2]; IC50, DR4): 7.40; pIC50 ([2]; IC50 DR4): 7.40; pIC50 [4, 20]: 7.36 |
